In BindingDB's records for doi:10.1021/jm0100537 (Glaxosmithkline, 2001):
pIC50, pKi: −log10 of the molar value. One block for each compound: values may come before it.

Experiments:
Test in all cases: Caspase Inhibition Assay
Caspase-3 = molecular target: T1, Caspase-3 (Homo sapiens, UniProt P42574)
T1 sequence (P42574 whole entry): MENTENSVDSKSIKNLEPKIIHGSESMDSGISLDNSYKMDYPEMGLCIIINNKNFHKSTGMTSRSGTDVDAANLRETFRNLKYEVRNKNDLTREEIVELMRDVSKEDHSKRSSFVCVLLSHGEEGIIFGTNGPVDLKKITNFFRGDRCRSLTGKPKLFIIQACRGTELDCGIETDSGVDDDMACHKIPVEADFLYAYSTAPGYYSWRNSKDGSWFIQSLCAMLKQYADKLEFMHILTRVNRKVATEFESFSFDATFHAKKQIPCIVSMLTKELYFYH

Caspase-6 = molecular target: T2, Caspase-6 (Homo sapiens, UniProt P55212)
T2 sequence (P55212 whole entry): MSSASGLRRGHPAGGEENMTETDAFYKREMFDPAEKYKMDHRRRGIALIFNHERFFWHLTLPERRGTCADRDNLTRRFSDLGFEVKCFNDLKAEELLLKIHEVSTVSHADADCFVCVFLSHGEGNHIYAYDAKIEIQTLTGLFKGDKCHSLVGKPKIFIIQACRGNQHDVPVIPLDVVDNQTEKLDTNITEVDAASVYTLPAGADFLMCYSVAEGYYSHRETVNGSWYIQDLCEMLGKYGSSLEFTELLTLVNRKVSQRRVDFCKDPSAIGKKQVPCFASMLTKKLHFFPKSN

Caspase-9 = molecular target: T3, Caspase-9 (Homo sapiens, UniProt P55211)
T3 sequence (P55211 whole entry): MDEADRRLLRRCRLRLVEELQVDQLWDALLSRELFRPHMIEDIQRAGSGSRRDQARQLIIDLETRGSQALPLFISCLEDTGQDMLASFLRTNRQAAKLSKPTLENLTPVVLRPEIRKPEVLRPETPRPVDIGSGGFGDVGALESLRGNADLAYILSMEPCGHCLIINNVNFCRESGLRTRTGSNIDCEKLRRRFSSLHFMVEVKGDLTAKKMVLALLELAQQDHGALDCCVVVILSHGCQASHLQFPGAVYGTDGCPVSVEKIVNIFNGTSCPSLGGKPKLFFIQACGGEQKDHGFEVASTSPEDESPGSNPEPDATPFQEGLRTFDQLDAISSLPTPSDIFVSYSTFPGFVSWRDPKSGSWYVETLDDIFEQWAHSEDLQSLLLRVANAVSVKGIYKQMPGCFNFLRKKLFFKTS

Caspase-4 = molecular target: T4, Caspase-4 (Homo sapiens, UniProt P49662)
T4 sequence (P49662 whole entry): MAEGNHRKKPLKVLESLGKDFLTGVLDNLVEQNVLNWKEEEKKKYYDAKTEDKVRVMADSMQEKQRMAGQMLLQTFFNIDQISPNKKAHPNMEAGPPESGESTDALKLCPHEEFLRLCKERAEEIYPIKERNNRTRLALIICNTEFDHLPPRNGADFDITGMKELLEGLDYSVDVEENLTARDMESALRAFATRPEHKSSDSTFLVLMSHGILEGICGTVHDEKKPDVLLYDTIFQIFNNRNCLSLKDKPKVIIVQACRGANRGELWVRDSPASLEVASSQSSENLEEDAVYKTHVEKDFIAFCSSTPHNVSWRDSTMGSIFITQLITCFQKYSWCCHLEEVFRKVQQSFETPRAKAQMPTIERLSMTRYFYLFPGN

Caspase-2 = molecular target: T5, Caspase-2 (Homo sapiens, UniProt P42575)
T5 sequence (P42575 whole entry): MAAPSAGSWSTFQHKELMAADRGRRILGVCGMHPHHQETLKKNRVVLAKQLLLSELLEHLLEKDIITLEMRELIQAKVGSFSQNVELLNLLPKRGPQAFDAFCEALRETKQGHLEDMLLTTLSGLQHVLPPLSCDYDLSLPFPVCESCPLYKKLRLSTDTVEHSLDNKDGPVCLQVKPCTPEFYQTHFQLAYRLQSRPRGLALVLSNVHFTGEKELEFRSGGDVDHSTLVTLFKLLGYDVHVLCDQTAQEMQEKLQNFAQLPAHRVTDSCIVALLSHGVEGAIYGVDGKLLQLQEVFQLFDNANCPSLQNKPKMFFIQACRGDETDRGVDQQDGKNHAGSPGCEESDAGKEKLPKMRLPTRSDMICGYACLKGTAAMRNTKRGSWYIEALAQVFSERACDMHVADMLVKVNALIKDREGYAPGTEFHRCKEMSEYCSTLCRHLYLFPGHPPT

Caspase-1 = molecular target: T6, Caspase-1 (Homo sapiens, UniProt P29466)
T6 sequence (P29466 whole entry): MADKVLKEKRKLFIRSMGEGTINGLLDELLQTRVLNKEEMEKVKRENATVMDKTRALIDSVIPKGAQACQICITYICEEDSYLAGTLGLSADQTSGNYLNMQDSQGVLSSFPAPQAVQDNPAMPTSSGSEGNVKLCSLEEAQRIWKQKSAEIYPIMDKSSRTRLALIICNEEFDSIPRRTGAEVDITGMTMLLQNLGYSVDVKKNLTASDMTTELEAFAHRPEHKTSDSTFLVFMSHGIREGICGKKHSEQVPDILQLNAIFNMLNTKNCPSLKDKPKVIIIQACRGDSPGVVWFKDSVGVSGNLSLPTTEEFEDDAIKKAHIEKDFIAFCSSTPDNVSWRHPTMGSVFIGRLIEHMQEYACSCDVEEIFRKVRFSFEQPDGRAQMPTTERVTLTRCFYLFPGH

Caspase-8 = Caspase-8 (Homo sapiens, UniProt Q14790)
Caspase-8, sequence (Q14790 217-374 limits assumed): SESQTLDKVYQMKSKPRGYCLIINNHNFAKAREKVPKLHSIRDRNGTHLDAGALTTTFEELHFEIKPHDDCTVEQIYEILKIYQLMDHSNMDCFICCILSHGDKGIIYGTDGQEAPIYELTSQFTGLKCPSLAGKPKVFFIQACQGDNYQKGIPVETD
Caspase-8, sequence (Q14790 385-479 limits assumed): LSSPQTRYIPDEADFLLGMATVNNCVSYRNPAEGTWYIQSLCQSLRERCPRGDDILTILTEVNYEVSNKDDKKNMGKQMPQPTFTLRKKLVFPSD

Caspase-7 = molecular target: T7, Caspase-7 (Homo sapiens, UniProt P55210)
T7 sequence (P55210 whole entry): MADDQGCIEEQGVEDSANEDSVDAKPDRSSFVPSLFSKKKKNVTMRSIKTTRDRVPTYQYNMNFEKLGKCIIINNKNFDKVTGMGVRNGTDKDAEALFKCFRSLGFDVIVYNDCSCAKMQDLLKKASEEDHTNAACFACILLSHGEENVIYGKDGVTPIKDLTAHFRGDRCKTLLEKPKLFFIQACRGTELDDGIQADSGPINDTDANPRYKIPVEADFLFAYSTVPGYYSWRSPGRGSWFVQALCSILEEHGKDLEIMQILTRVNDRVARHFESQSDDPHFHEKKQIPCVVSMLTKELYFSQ

pIC50 (Caspase-3; pH 7.5, 30 °C): 5.52
SMILES: O=C1Nc2ccc([N+](=O)[O-])cc2C1=O [5-nitro-2,3-dihydro-1H-indole-2,3-dione]

pKi (Caspase-6): 4.24 | pKi (Caspase-9): < 4.30 | pKi (Caspase-4): < 4.30 | pKi (Caspase-2): 4.96 | pKi (Caspase-1): < 4.30 | pKi (Caspase-8): < 4.30 | pIC50 (Caspase-3): 5.26 | pKi (Caspase-3): 4.92 | pKi (Caspase-7): 5.00
SMILES: O=C1Nc2ccc(S(=O)(=O)N3CCC[C@@H]3CNc3ccccc3)cc2C1=O [5-{[(2R)-2-[(phenylamino)methyl]pyrrolidine-1-]sulfonyl}-2,3-dihydro-1H-indole-2,3-dione]

pIC50 (Caspase-3): 6.85
SMILES: O=C1Nc2ccc(S(=O)(=O)N3CCC[C@H]3C(=O)Nc3ccccc3)cc2C1=O [(2S)-1-[(2,3-dioxo-2,3-dihydro-1H-indole-5-)sulfonyl]-N-phenylpyrrolidine-2-carboxamide]

pIC50 (Caspase-3): 7.52
SMILES: CN1C(=O)C(=O)c2cc(S(=O)(=O)N3CCC[C@H]3COc3ccccc3)ccc21 [(S)-1-Methyl-5-{1-[2-(phenoxymethyl)pyrrolidinyl]sulfonyl}isatin]
